# From patent publication US20260374809A1, “COMPOUNDS USEFUL FOR THE TREATMENT AND/OR CARE OF THE SKIN, HAIR, NAILS AND/OR MUCOUS MEMBRANES” (Lubrizol Advanced Materials, Inc., priority 2022, published 2026)
# Where a SMILES comes first, the peptide text is derived from it.
# Tested on: Human dermal fibroblast (HDF)
# Assay: Collagen contraction assay with human dermal fibroblasts in collagen gel
# Format: cell-based
# Details: 0.01 mg/ml, 24 h post detachment, without MES; basal control = 100.0, MES = 144.4
# Description: It is known that a remarkable change in the mechanical properties of the skin with aging is due to reduced contractile capacity as well as reduced migration activity of fibroblasts. Healthy fibroblasts induce contraction of the collagen network through physical interactions with collagen fibers. The collagen network is essential for maintaining the firmness of the skin. The collagen contraction assay is a well-known experimental approach to measuring the cell-induced contraction of the extracellular matrix. In this assay, the capacity of fibroblasts, embedded in a collagen-based gel, to reduce the gel diameter is evaluated.
# By improving the contractile forces, the mechanical tension can be improved, which can be associated to “lifting” effect at the scale of fibroblasts.
# The microcurrent system was built by coupling gold electrodes (in order to avoid medium oxidation leading to cell death when current goes through) to opposite sides of 60 mm Petri dishes (separated by 4 cm). When a voltage is applied, an electric field generates between opposite positive and negative poles and current passes through the culture. During the stimulation time (2 hours), each of the 60 mm Petri dishes is connected to a voltage source that allows regulating the amount of current that passes through each of them. For these experiments, a […] current (which corresponds to approx. 67 mV/mm) was used.
# Human dermal fibroblast (HDF) cell culture and expansion: Cells were thawed in T75 flasks and the growth medium was changed every 2 days of cell culture. After 7 days, cells were expanded to obtain a total amount of 7×10^6 cells to be used in the experiments.
# Once finished the expansion, cultures are trypsinized and seeded at 3×10^5 cells/60 mm Petri up to a total of 10 dishes per replicate. These ten dishes correspond to one experiment (Control/-MES vs+MES) at a specific concentration. Peptide treatment was performed at 0.01 mg/ml.
# After an overnight (O/N) incubation to allow cell attachment, each Petri dish is treated at the corresponding concentration with 4 ml of specific medium for a total of 24 hours in both conditions (without MES and with MES). Peptide treatment on the dishes that are not stimulated with microcurrent is initiated 2 hours in advance, and their passage into 3D cultures occurs at the same time as the microcurrent stimulation of the other dishes. […]
# Each 3D culture is prepared by mixing collagen solution with the culture medium corresponding to each of the conditions (without peptide or with peptide). […] Images of collagen gel diameter are taken of each well at 24 hours post detachment and analyzed by ImageJ. […]
# [formula] • An initial area is stablished. […] Area t=0 gel […]1.86 cm^2 (Area of a well in a 24-well plate) • Quantification of Area at t=x; Ax. […]
compound,measurement,value
"CC(C)C[C@H](N)C(=O)N1CCC[C@H]1C(=O)N[C@H](C(=O)N[C@H](C(=O)O)[C@@H](C)O)C(C)C [PEP-1, H-Leu-Pro-Val-Thr-OH] (H-LPVT-OH)","Collagen contraction, MEAN ± SEM",137.5 ± 7.8%
